Results reported in patent publication US20240075027A1, “REPOSITIONING THE ANTI-LEPROSY DRUG CLOFAZIMINE AGAINST DRUG-RESISTANT MYELOMA AND PUTATIVE STEM-CELL SUBCLONES” (Auburn University, priority 2022, published 2024).
Read-outs that look alike come from different tables or passages of the source.

Assays:
[1] = system: human myeloma cell lines (HMCLs); experiment: In vitro chemosensitivity assay (CellTiter-Glo cell viability); assay type: cell-based; settings: single-agent
Description: A large panel of HMCLs representing innate sensitivity and resistance to PIs and IMiDs (similar to refractory disease) have been compiled, as well as >10 pairs of parental and clonally-derived PI/IMiD-resistant HMCLs (P vs R pairs; generated using dose escalation over a period of time) representing acquired or emerging drug resistance, and encompassing the broad spectrum of biological and genetic heterogeneity of myeloma (Mitra et al., 2017, Blood Cancer J., 7:e581). The human myeloma cell lines (HMCLs) were obtained as previously described (Mitra et al., 2017, Blood Cancer J., 7:e581). The clonally related acquired PI-resistant HMCLs were generated from parental cell lines by dose escalation of bortezomib using pulses of once-weekly bortezomib treatment as described previously (Mitra et al., 2016, Leukemia., 30:1094-1102). […]
HMCLs were treated with increasing concentrations of CLF, PIs (represented by Ix), and IMiDs (represented by Len) as single agents or in combination for 48 h, and cytotoxicity assays were performed using CellTiter-Glo® Luminescent cell viability assay (Promega Madison, WI). Luminescence was recorded in a Neo2 Microplate Reader (Biotek), and half-maximal inhibitory concentration (IC50) values were determined by calculating the nonlinear regression using the sigmoidal dose-response equation (variable slope). […]

[2] = system: bone marrow-derived CD138+ primary myeloma cells (PMCs); experiment: Ex vivo direct-to-drug screening assay (CellTiter-Glo); assay type: cell-based; settings: Homo sapiens, single-agent
Protocol: Bone marrow-derived CD138+ primary myeloma cells were obtained from patients (n=16) and used as ex vivo model systems. Written informed consent was received from participants prior to inclusion in the study. Participants have been identified by number, not by name. The primary samples were cultured as total bone marrow and put in culture to retain the patients' natural BM microenvironment. Cells of interest were CD138+-gated during analysis. The drugs were screened in a 7-point, 10-fold dilution, with the highest concentration at 10 μM, and incubated for 24 h. Anti-MM activity was assessed through cellular viability, evaluated with CellTiter-Glo®. The mid-point EC50, percentage of maximum inhibition was calculated using the TIBCO Spotfire® v.7.0.0 software, and the area under the curve (AUC) was calculated with the GraphPad Prism v.8 software (Bonolo de Campos et al., 2020, Blood Cancer J., 10:54).

[3] = system: human myeloma cell lines (HMCLs); experiment: Drug synergy analysis (Calcusyn, Chou-Talalay combination index); assay type: cell-based; settings: CLF in combination with PI or IMiD
Protocol: HMCLs were treated with increasing concentrations of CLF, PIs (represented by Ix), and IMiDs (represented by Len) as single agents or in combination for 48 h, and cytotoxicity assays were performed using CellTiter-Glo® Luminescent cell viability assay (Promega Madison, WI). Luminescence was recorded in a Neo2 Microplate Reader (Biotek), and half-maximal inhibitory concentration (IC50) values were determined by calculating the nonlinear regression using the sigmoidal dose-response equation (variable slope). The drug cytotoxicity data and IC50 values were used to compare response and to determine synergy by Calcusyn software (Biosoft; Chou-Talalay's CI theorem) (Chou, 2011, Am J Cancer Res, 1: 925-54). CI value <0.9 denotes synergism.

HMCLs = experiment: Apoptosis assay (Annexin V-FITC flow cytometry); assay type: cell-based, human
Protocol: Cells were cultured for 48 h in the presence of indicated concentrations of compounds, harvested and washed, and incubated with Annexin V-FITC (BD Biosciences) and Propidium Iodide for 15 min at room temperature in the dark. Apoptosis was measured by BD LSR II flow cytometry (BD Biosciences).

[4] = system: caspase-3/7 activity in HMCLs; experiment: Caspase-Glo 3/7 luminescent assay; assay type: cell-based, human
Protocol: Caspase-3/7 activity assays were performed on the HMCLs using Caspase-Glo 3/7 luminescent assay kit according to manufacturer's instructions (Promega Madison, WI). Briefly, 1×10^6 cells/ ml were cultured in 6-well plates and treated with either CLF alone and/or combination for indicated times. After harvesting, cells were washed twice with cold PBS and resuspended with Caspase-Glo 3/7 reagents. Reactions were incubated for 1 h at 37° C., and luminescence was determined using Synergy 2 Microplate Reader (Biotek). Cell death by apoptosis was also measured by immunoblotting analysis.

[5] = system: apoptotic, ER stress, autophagy and survival proteins in myeloma cells; experiment: Western blotting (immunoblotting) pre- vs post-treatment; assay type: cell-based, human
Protocol: Cells treated with CLF, PI, or IMiD as single-agent or as a combination for 24 h were harvested, washed, and lysed using radioimmunoprecipitation assay (RIPA) lysis buffer containing 50 mM Tris-HCl, pH 7.5, 150 mM NaCl, 1% NP40, 5 mM EDTA, 1 mM DTT, phosphatase and […] cocktail (Sigma), and incubated on ice for 15 min. Samples were then centrifuged at 14,000 rpm at 4° C. for 30 mins. The supernatant was then aspirated, total protein was isolated and quantified using Pierce BCA Protein Assay Kit (Thermo Scientific). Samples were solubilized in SDS-PAGE sample buffer, and equal amounts of protein were loaded per lane of 10% SDS polyacrylamide gels and transferred onto PVDF membranes (Millipore; Billerica, MA). Membranes were blocked in TBS with SuperBlock® blocking buffer (Thermo Fisher). Membranes were then incubated with primary antibodies and secondary antibodies in TBS with 0.2% Tween® 20 and 2.5% BSA. Immunoreactivity was detected by Chemiluminescent HRP Substrate (Bio-Rad), and the exposed image was captured using a ChemiDoc MP Imaging System (Bio-Rad). Densitometry analysis was performed (in triplicates) using Image J software.

RPMI8226P/VR cells [6] = experiment: Superoxide levels (DHE flow cytometry); assay type: cell-based, human; settings: 24 h
Protocol: Myeloma cells treated with CLF-based regimens for 24 h were incubated with 2.5 μM DHE (in RPMI) for 15 min in the dark at 37° C. Cells were then washed once with PBS, and red fluorescence was detected by flow cytometry.

RPMI8226P/VR cells [7] = experiment: Mitochondrial membrane potential (JC-1); assay type: cell-based, human; settings: 24 h
Protocol: CLF-treated (24 h) cells were incubated with 5 μM JC-1 dye for 15 min in the dark at 37° C. and washed twice in PBS, and then analyzed for red and green fluorescence by flow cytometry.

[8] = system: HMCLs (RPMI826 P/VR and U266 P/VR); experiment: Colony-forming cells (CFCs) assay (Methocult); assay type: cell-based, human
Protocol: Colony formation potential of untreated and drug-treated HMCLs was accessed using Methylcellulose-based assay according to manufacturer's instructions (Methocult, Stem Cell Technologies). Briefly, myeloma cells were treated with either CLF alone or in combination with PI for the indicated time period. Following incubation, cells were harvested, washed with PBS, and methylcellulose-based media (Methocult) was added to cells pellets, and colonies were allowed to grow for 4 weeks in 6-well plates. Images were captured after 4 weeks with an inverted microscope (Olympus, 4×/20× lens with color camera), and cell colony numbers were counted by Image J software (NIH).

ALDH+ myeloma cells = experiment: Aldefluor (ALDH) activity assay; assay type: cell-based, human; settings: 24 h
Protocol: Aldehyde dehydrogenase (ALDH) activity was assessed using the Aldefluor™ assay kit according to the manufacturer's instructions (Stem Cell Technologies). Briefly, 1×10^6 myeloma cells were treated with CLF-based regimens for 24 h, harvested, and resuspended in 1 ml Aldefluor™ assay buffer containing the ALDH substrate BODIPY-aminoacetaldehyde (BAAA). Negative control samples were treated with 5 μl of diethylaminobenzaldehyde (DEAB) as an inhibitor of ALDH1 enzymatic activity. Cells were incubated for 30-45 min at 37° C., then washed twice, and suspended in Aldefluor™ assay buffer. The brightly fluorescent ALDH+ cells were detected by BD LSR II flowcytometry.

[9] = system: RPMI8226P, RPMI8226VR, U266P, and U266VR cells; experiment: CFSE assay of quiescent CD138+ cells; assay type: cell-based, human; settings: parental and clonally derived PI-resistant cells
Protocol: For assessing apoptosis in quiescent CD138+ cells, myeloma cells were first stained with carboxyfluorescein succinimidyl ester (CFSE; Invitrogen) for 30 min, then washed and resuspended in RPMI1640 medium and were incubated at 37° C. overnight. The next day, cells were treated and maintained further for 4 days with supplementation of the drugs every 48 h.

[10] = system: Side population (SP) cells in PI-resistant HMCLs; experiment: Side population analysis (DyeCycle Violet); assay type: cell-based, human
Protocol: Side population cells were investigated using DyeCycle™ Violet (cell-permeable DNA binding) assays according to manufacturer's instructions (Thermofisher). […] After 96 h, cells were stained with 10 μM Vybrant™ DyeCycle™ Violet (DCV; Molecular Probes, Eugene, OR) for 90 min at 37° C. Samples incubated with 100 μM verapamil (Sigma-Aldrich) for 30 min were used as positive control. Following dye incubation, cells were washed twice with ice-cold PBS, chilled on ice, and immediately analyzed by flow cytometry.

[11] = system: HMCLs and patient primary myeloma cells; experiment: Mass cytometry (CyTOF) single-cell proteomics; assay type: cell-based, human
Protocol: Mass cytometry (CyTOF) analysis is a single-cell proteomics methodology that combines flow cytometry and elemental mass spectrometry. Thirty-seven antibody targets directed against cell surface (neoplastic myeloma) and intracellular markers (immune tumor microenvironment) were utilized for immunophenotyping panels. The antibody markers and respective metal conjugates are described in Table 2. One to three million untreated or treated (for 24 h) HMCLs or primary human myeloma cells were used for CyTOF staining. Cells were stained with cisplatin (1:10,000 dilutions in RPMI1640 media without FBS) at 37° C. for 5 minutes, washed with media with 10% FBS, spun at 300×g, and incubated with media with 10% FBS for 15 min. This was followed by another wash, spin, and the pellet was resuspended in 1× Fix buffer for 10 minutes at room temperature. HMCL samples, along with lyophilized healthy human PBMC (Veri-Cells PBMC: control cells; BioLegend), were washed using Maxpar cell staining buffer (MCSB) (Fluidigm). A total of 16 μL of the surface antibody cocktail was added to each tube containing each cell suspension in 100 μL of MCSB and incubated for 30 minutes at room temperature. Cells were washed with MCSB to remove excess antibodies and stored overnight at −80° C. after methanol fixation. Cells were washed with MCSB and incubated with 20 μL of intracellular antibody cocktail for 30 minutes at room temperature, followed by wash and fixation with fresh 1.6% formaldehyde solution for 10 minutes at room temperature. Cells were washed with MCSB and resuspended in 1 ml of Cell-ID™ Intercalator solution (1:4000 dilution in permeabilization buffer, Maxper Fix, and Perm Buffer). All samples were barcoded using cell-ID™ 20-Plex Barcoding Kit (Fluidigm), which were then stained, washed with MSCB, and acquired as a single multiplexed sample using Maxpar Cell Acquisition solution contained calibration beads.
Samples were loaded onto a Helios CyTOF system (Fluidigm) using an attached autosampler and were acquired at a rate of 200-400 events per second. Data were collected as .FCS files using the CyTOF Software (Version 6.7.1014, Fluidigm). After acquisition, intrafile signal drift was normalized to the acquired calibration bead signal using the CyTOF Software.
For CyTOF data analysis, Cytobank software version 7.3.0 (Santa Clara, CA) was used for cleanup of cell debris, removal of doublets and dead cells, and analysis of cleaned fcs files. Clustering, dimensionality reduction (to 10,000 events per file), and the visualization of cell population cluster map were performed by t-SNE. Relative marker intensities and cluster abundances per sample were visualized by a heatmap.

[12] = cited from earlier work
[13] = HMCLs and patient-derived primary cells, irrespective of PI- or IMiD-resistance

CC(C)/N=c1\cc2n(-c3ccc(Cl)cc3)c3ccccc3nc-2cc1Nc1ccc(Cl)cc1 [CLF, clofazimine]
IC50 ([1]; Homo sapiens, 48 h, panel of sensitive, innate and clonally-derived resistant HMCLs): 0.2 to 20.5 µM | anti-myeloma potency compared with other PPARg agonists (rosiglitazone, pioglitazone) [1]: most potent among all the PPARg agonists tested | EC50 ([2]; ex vivo, patients n=12, read-out: maximum EC50): 15.2 µM | EC50 ([2]; ex vivo, patients n=12, read-out: median EC50): 2.41 µM | EC50 ([2]; ex vivo, patients n=12, read-out: minimum EC50): 1.05 µM | EC50 ([2]; patients n=12, range, read-out: ex vivo CLF EC50 values): 1 to 15 µM | therapeutic index / amount of PI/IMiD required (dose reduction index, predicted decrease in IC50) [3]: decreased the amount of PI/IMiD required to achieve effective responses | apoptosis (annexin V staining) (HMCLs; CLF alone): significant apoptosis | apoptosis (annexin V staining) (HMCLs; in combination with 15 nm ixazomib): significant apoptosis | caspase-3 activity (Caspase 3/7 assay) [4]: induced caspase-3 activity | ER stress pathway and autophagy proteins ([5]; IRE1, PERK, ATF6, mRNA sequencing, IPA and Western blotting): induces the proteins involved ER stress pathway | anti-apoptotic/survival markers and Bax expression ([5]; Western blotting): decrease in the anti-apoptotic/survival markers Bcl2, Mcl-1 and increase in Bax expression | caspase activation (Western blotting) ([5]; caspase-3, 8, 9): activated caspase-3 and 9 but not 8 | STAT and HIF-1α expression ([5]; myeloma, FIG. 3D densitometry): downregulation of STATS and HIF-1α | cellular superoxide anions (DHE) (RPMI8226P/VR cells [6]): induction of cellular superoxide anions | mitochondrial membrane potential (JC-1) (RPMI8226P/VR cells [7]): mitochondrial membrane depolarization | colony formation ([8]; PI-resistant lines (RPMI826 P/VR and U266 P/VR)): significantly reduced colony formation | colony number and colony size ([8]; compared to control or ixazomib): significantly reduced colony number as well as colony size | ALDH activity (ALDH+ myeloma cells): significant decrease in ALDH activity | apoptosis in CFSEbright and CFSEdim cells [9]: caused apoptosis in both CFSEbright and CFSEdim cells | number of CFSE-bright (non-dividing) cells [9]: significantly reduced their number | side population (SP) [10]: reduced SP | cleaved caspase-3 levels (CyTOF) [11, 13]: elevated cleaved caspase-3 levels | marker expression (CyTOF) [11, 13]: downregulation of pS6, IRF4, pCREB, pRB, IKZF1 | cleaved caspase levels (CyTOF) ([11]; all cell lines and primary samples, cluster enriched for cells exposed to high dose CLF): elevated cleaved caspase levels | myeloma survival markers incl. IRF4, IKZF1, IKZF3, CD229, CD27, pS6, pERK, IkBa (CyTOF and immunoblotting) ([11]; pre- vs post-treatment): shifts in a majority of these markers | safe dose range ([12]; corresponds to human plasma Cmax): 0.84 to 8.4 µM | human plasma Cmax ([12]; human plasma): 0.4 to 4 µg/mL
